Among the data in PubChem BioAssay (NCI) are TGI and GI50 values, retold here.

Several values for one entry are separate records, joined by “and”; a condition that tells them apart may be missing. Equal entries are not always repeated.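 Step 1: Grow cells in 96-well plates. Step 2: Expose to compound for 48 hours at 5 concentrations. Step 3: Interpolate endpoints linearly; if unreached, use highest concentration. Here, GI50 denotes the concentration required for 50% inhibition of growth. The concentration for full growth arrest is given as TGI.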 Bounds are passed on as bounds.

Among the test systems are NCI-H23 lung; SN12C renal; OVCAR-4 ovarian; NCI-H226 lung; OVCAR-5 ovarian; DU-145 prostate; CAKI-1 renal; HCC-2998 colon; MDA-MB-435; COLO 205 colon; SR leukemia.
Experiment in all cases: NCI anticancer screen, dose series, 48 h

With `CC(=O)OCCCCn1cc(Cn2ccc(=O)n(Cc3cn(CCCCOC(C)=O)nn3)c2=O)nn1`, the TGI with NCI-H23 lung, in the assay with SN12C renal, in the assay with OVCAR-4 ovarian, in the assay with NCI-H226 lung, in the assay on OVCAR-5 ovarian and in the assay on DU-145 prostate was > 100 µM each time. For the same molecule, the TGI with CAKI-1 renal, with HCC-2998 colon, in the assay with MDA-MB-435 and in the assay on COLO 205 colon was > 100 µM throughout.

Regarding `C[n+]1c2ccccc2c(/C=N\NS(=O)(=O)c2ccc(Cl)cc2)c2ccccc21`, the TGI in the assay on NCI-H23 lung, in the assay on SN12C renal, in the assay on OVCAR-4 ovarian, in the assay with NCI-H226 lung, with OVCAR-5 ovarian and in the assay with CAKI-1 renal was > 100 µM each time. The TGI in the assay on HCC-2998 colon was > 100 µM.

In the case of `Nc1ccc2ccc(-c3ccc[nH]3)nc2n1`, the TGI with NCI-H23 lung, in the assay on SN12C renal, in the assay on OVCAR-4 ovarian, in the assay on NCI-H226 lung, in the assay with OVCAR-5 ovarian and in the assay on CAKI-1 renal was > 100 µM each time. In addition, the TGI in the assay on HCC-2998 colon, in the assay on MDA-MB-435 and with COLO 205 colon was > 100 µM in each case.

For `CCOc1ccc(/C=C2\NC(=S)N(/C=C3\C(=O)Oc4ccccc4C3=O)C2=O)cc1`, the TGI in the assay on NCI-H23 lung was 80.8 µM; with SN12C renal, 45.3 µM; in the assay with OVCAR-4 ovarian, 66.5 µM; in the assay with NCI-H226 lung, 45.7 µM; in the assay with OVCAR-5 ovarian it was > 100 µM; with DU-145 prostate it was 57.7 µM. In addition, the TGI was 53.5 µM in the assay on CAKI-1 renal, > 100 µM in the assay with HCC-2998 colon, 78.3 µM in the assay with MDA-MB-435 and 43.4 µM in the assay on COLO 205 colon.

`O=[N+]([O-])c1ccc([N+]2=NC(c3ccccc3)=NN(c3ccccc3)C2)cc1`: the TGI in the assay with NCI-H23 lung, in the assay on SN12C renal, in the assay on OVCAR-4 ovarian, with NCI-H226 lung, in the assay on OVCAR-5 ovarian and in the assay on CAKI-1 renal was > 100 µM throughout. For the same molecule, the TGI with SR leukemia and in the assay on COLO 205 colon was > 100 µM in each case.

With `CCC(=O)/C(=C\I)c1ccccc1`, the TGI in the assay with NCI-H23 lung is 14.4 µM; in the assay on SN12C renal it was 5.29 µM; with NCI-H226 lung, 56.7 µM; with OVCAR-5 ovarian, 3.48 µM; in the assay on DU-145 prostate it was 18.4 µM; with MDA-MB-435, 10.4 µM. The molecule further yielded a TGI in the assay on COLO 205 colon of 3.59 µM.

For the molecule `N#CC[N+]1(Cc2ccccn2)CCCC1`, the TGI with NCI-H23 lung, in the assay with SN12C renal, in the assay on OVCAR-4 ovarian, in the assay on NCI-H226 lung, in the assay with OVCAR-5 ovarian and with DU-145 prostate was > 100 µM in each case. Moreover, the TGI in the assay on CAKI-1 renal, with HCC-2998 colon, with MDA-MB-435 and in the assay on COLO 205 colon was > 100 µM each time.

For the molecule `O=C1/C(=C/c2ccccc2)NC(=S)N1CN1CCCCC1`, the TGI was > 100 µM in the assay on NCI-H23 lung; > 100 µM in the assay on SN12C renal; 92.6 µM in the assay with OVCAR-4 ovarian; > 100 µM in the assay on NCI-H226 lung; > 100 µM in the assay on OVCAR-5 ovarian; > 100 µM in the assay with DU-145 prostate. Besides, the TGI in the assay on MDA-MB-435, in the assay on SR leukemia and in the assay on COLO 205 colon was > 100 µM in each case.

With `O=C(N/N=C(/COc1ccccc1Cl)N=Cc1ccncc1)c1ccncc1`, the TGI in the assay with NCI-H23 lung, in the assay with SN12C renal, with OVCAR-4 ovarian, with OVCAR-5 ovarian, in the assay with DU-145 prostate and with CAKI-1 renal was > 100 µM in each case. In addition, the TGI in the assay with HCC-2998 colon, with MDA-MB-435 and in the assay on COLO 205 colon was > 100 µM in each case.

Regarding `CCN(CC)CCOc1ccc(C(O)(Cc2ccc(OC)cc2)c2ccccc2)cc1` (stereo unspecified), the TGI in the assay with NCI-H23 lung is 45.1 µM; with SN12C renal, > 100 µM; with OVCAR-4 ovarian it was 75.3 µM; with NCI-H226 lung, 77.5 µM; in the assay with OVCAR-5 ovarian, 61.5 µM; with CAKI-1 renal it was 50.9 µM. Further, the results for the TGI with HCC-2998 colon, in the assay with SR leukemia and with COLO 205 colon were 27.5 µM, 32 µM and 24.9 µM, respectively.

Regarding `CC(=O)NC1(C(=O)N[C@@H](Cc2ccccc2)C(=O)NC2CCCCC2)Cc2ccc3ccccc3c2-c2c(ccc3ccccc23)C1`, the GI50 in the assay on OVCAR-4 ovarian is 1.17 µM and 6.26 µM; with OVCAR-5 ovarian it was 26.5 µM and 11.5 µM; in the assay on MDA-MB-435, 3.74 µM and 9.85 µM; with COLO 205 colon, 2.2 µM and 5.01 µM. In addition, the TGI in the assay on OVCAR-4 ovarian is > 100 µM; in the assay on OVCAR-5 ovarian it was > 100 µM and 98 µM; with CAKI-1 renal, > 100 µM; in the assay with HCC-2998 colon, > 100 µM and 89.5 µM; in the assay on MDA-MB-435, > 100 µM; in the assay with SR leukemia, > 100 µM. Also, the TGI in the assay with COLO 205 colon is 4.44 µM and 15.9 µM.

With `C=Cc1nc(C#N)c(N)o1`, the TGI in the assay on NCI-H23 lung, in the assay on SN12C renal, in the assay with OVCAR-4 ovarian, in the assay with NCI-H226 lung, in the assay with OVCAR-5 ovarian and with DU-145 prostate was > 100 µM throughout. Besides, the TGI with CAKI-1 renal, in the assay with HCC-2998 colon, in the assay on MDA-MB-435 and in the assay with COLO 205 colon was > 100 µM in each case.

With `CC(C)(C)OC(=O)N1[C@@H]2Cc3ccc(N)cc3[C@@]1(C)c1ccccc12`, the TGI was 60.4 µM with NCI-H23 lung; 30.7 µM in the assay on SN12C renal; > 100 µM in the assay with OVCAR-4 ovarian; > 100 µM in the assay with OVCAR-5 ovarian; > 100 µM in the assay with DU-145 prostate; > 100 µM with CAKI-1 renal. For the same molecule, the results for the TGI with HCC-2998 colon and with MDA-MB-435 were 47.2 µM and 33.3 µM, respectively.

As to `COc1c(C)c(C/C=C(\C)CC/C=C(\C)CC/C=C(\C)CCC=C(C)C)c(OC)c2ccccc12`, the TGI with NCI-H23 lung, with SN12C renal, in the assay on OVCAR-4 ovarian, in the assay on OVCAR-5 ovarian, in the assay with DU-145 prostate and in the assay on CAKI-1 renal was > 100 µM in each case. Moreover, the TGI in the assay on MDA-MB-435 was > 100 µM; in the assay on SR leukemia, 90.6 µM; in the assay on COLO 205 colon, > 100 µM.
